According to US10034886B2, “GLP-1 receptor modulators” (Celgene International II SÀRL, priority 2014, dated 2018):

biological target: T1, GLP-1R (Homo sapiens, UniProt P43220); experiment: EC20 GLP-1(9-36) PAM cAMP assay: dose response of compound in the presence of fixed concentration of GLP-1(9-36); format: cell-based; settings: GLP-1R CRE-bla CHO-K1 cells, compound dose response with fixed concentration of GLP-1(9-36), read-out: EC20 GLP-1(9-36) PAM EC50
T1 construct: host or cells: GLP-1R CRE-bla CHO-K1 cells
T1 sequence (P43220 24-463): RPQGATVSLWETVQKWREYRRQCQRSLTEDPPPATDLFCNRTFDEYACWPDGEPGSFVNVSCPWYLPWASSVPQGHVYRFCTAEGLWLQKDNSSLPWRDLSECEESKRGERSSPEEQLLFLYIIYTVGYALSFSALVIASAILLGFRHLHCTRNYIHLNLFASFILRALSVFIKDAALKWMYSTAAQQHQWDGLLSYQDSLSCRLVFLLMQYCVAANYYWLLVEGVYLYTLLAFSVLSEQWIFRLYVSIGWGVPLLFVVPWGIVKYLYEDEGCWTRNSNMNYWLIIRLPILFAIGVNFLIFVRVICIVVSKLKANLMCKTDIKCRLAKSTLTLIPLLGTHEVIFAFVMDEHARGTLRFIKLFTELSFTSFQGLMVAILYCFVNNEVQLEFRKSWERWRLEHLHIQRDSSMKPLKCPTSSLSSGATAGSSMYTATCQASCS
T1 sequence (P01275 100-127 partner limits assumed): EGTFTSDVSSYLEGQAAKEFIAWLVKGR
In short: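 GLP-1R CRE-bla CHO-K1 cells treated 30 min at 37 °C with 12-point compound dose response plus fixed EC20 GLP-1(9-36), with IBMX, in HBSS/HEPES/0.1% BSA pH 7.4. Total cAMP measured by luminescent detection against standard curve; EC50 and Emax from non-linear regression.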

EC50 [nM] | SMILES
2500 to 5000 | CC(C)(C)c1ccc(-c2ccc(-c3cnc(-c4ccc(C[C@H](NC(=O)c5ccc(C(C)(C)C)s5)C(=O)O)cc4)nc3)cc2)cc1 [Compound 1348]
< 800 | CC[C@H]1CC[C@H](c2ccc(-c3cnc(-c4ccc(C[C@H](NC(=O)c5ccc(C(C)(C)C)s5)C(=O)O)cc4)nc3)c(F)c2)CC1 [Compound 1363]
800 to 2500 | CC(C)(C)c1ccc(C(=O)N[C@@H](Cc2ccc(-c3ncc(N4CCC(c5cccc(Br)c5)CC4)cn3)cc2)C(=O)N2CC(C(=O)O)C2)s1 [Compound 1488]
800 to 2500 | COc1cc(C(=O)N[C@@H](Cc2ccc(-c3ncc(-c4ccc(OCCCC(C)C)cc4)cn3)cc2)C(=O)N2CC(C(=O)O)C2)ccc1C(C)(C)C [Compound 1239]
2500 to 5000 | CCc1ccc(/C(C)=C/c2cnc(-c3ccc(C[C@H](NC(=O)c4ccc(C(C)(C)C)s4)C(=O)N[C@H](C)C(=O)O)cc3)nc2)cc1 [Compound 1266]
< 800 | CC[C@H]1CC[C@H](c2ccc(-c3cnc(-c4ccc(C[C@H](NC(=O)c5ccc(S(C)(=O)=O)s5)C(=O)N5CC(C(=O)O)C5)cc4)nc3)cc2)CC1 [Compound 1278]
< 800 | CCC[C@H]1CC[C@H](C2CCN(c3cnc(-c4ccc(C[C@H](NC(=O)c5ccc(C(C)(C)C)nc5)C(=O)N5CC(C(=O)O)C5)cc4)nc3)CC2)CC1 [Compound 1531]
5000 to 10000 | CCc1ccc(C2CN(c3cnc(-c4ccc(CC(NC(=O)c5ccc(C(C)(C)C)s5)C(=O)N5CC(C(=O)O)C5)cc4)nc3)C2)cc1 (centres unmarked) [Compound 1418]
< 800 | CCC[C@H]1CC[C@H](C2CCN(c3cnc(-c4ccc(C[C@H](NC(=O)c5ccc(C(C)(C)CC)cc5)C(=O)N5CC(C(=O)O)C5)cc4)nc3)CC2)CC1 [Compound 1518]
800 to 2500 | CCCOc1ccc(C2CCN(c3cnc(-c4ccc(C[C@H](NC(=O)c5ccc(C(C)(C)C)s5)C(=O)N5CC(C(=O)O)C5)cc4)nc3)CC2)cc1 [Compound 1494]
< 800 | CCC[C@H]1CC[C@H](C2CCN(c3cnc(-c4ccc(C[C@H](NC(=O)c5ccc(C(C)(C)C)s5)C(=O)N[C@H](CC(N)=O)C(=O)O)cc4)nc3)CC2)CC1 [Compound 1460]

same assay, conditions: dose response of compound in presence of fixed concentration of GLP-1(9-36), GLP-1R CRE-bla CHO-K1 cells, read-out: EC20 GLP-1(9-36) PAM EC50

EC50 [nM] | SMILES
800 to 2500 | CCCCCCCOc1ccc(-c2cnc(-c3ccc(C[C@H](NC(=O)c4ccc(C(C)C)cc4)C(=O)NC(C(=O)O)C(O)c4ccccc4)cc3)nc2)cc1 (some centres unmarked) [Compound 951]
800 to 2500 | CCCCCCCOc1ccc(-c2cnc(-c3ccc(C[C@H](NC(=O)c4ccc(CCCC)cc4)C(=O)N4CC(C(=O)O)C4)cc3)nc2)cc1 [Compound 1115]
< 800 | CCCCCCCOc1ccc(-c2cnc(-c3ccc(CC(NC(=O)c4ccc(C(C)(C)C)s4)C(=O)N[C@H](C(=O)O)[C@@H](C)O)cc3)nc2)cc1 (some centres unmarked) [Compound 424]
2500 to 5000 | CCCCCCCOc1ccc(-c2cnc(-c3ccc(C[C@H](NC(=O)c4ccc(C(C)(C)C)cc4OC)C(=O)N4CC[C@H](C(=O)O)C4)cc3)nc2)cc1 [Compound 852]
2500 to 5000 | COc1ccc(-c2cnc(-c3ccc(C[C@H](NC(=O)c4ccc(C(C)(C)C)s4)C(=O)N[C@H](C)C(=O)O)cc3)nc2)cc1 [Compound 730]
800 to 2500 | Cc1cc(-c2cnc(-c3ccc(C[C@H](NC(=O)c4ccc(C(C)(C)C)s4)C(=O)N[C@H](C)C(=O)O)cc3)nc2)ccc1-c1ccccc1 [Compound 1129]
800 to 2500 | CCCCCCCOc1ccc(-c2cnc(-c3ccc(C[C@H](NC(=O)c4ccc(C(C)(C)C)s4)C(=O)NS(=O)(=O)c4ccccc4)cc3)nc2)cc1 [Compound 423]
800 to 2500 | CC(=O)c1ccccc1-c1ccc(-c2cnc(-c3ccc(C[C@H](NC(=O)c4ccc(C(C)(C)C)s4)C(=O)N4CC(C(=O)O)C4)cc3)nc2)c(F)c1 [Compound 1197]
< 800 | CCCCCCCOc1ccc(-c2cnc(-c3ccc(C[C@H](NC(=O)c4ccc(CC)cc4)C(=O)N[C@H](C)C(=O)O)cc3)nc2)cc1 [Compound 828]
800 to 2500 | CCCCCCCOc1ccc(-c2cnc(-c3ccc(C[C@H](NC(=O)c4ccc(C(C)(C)C)s4)C(=O)NC(C(=O)O)C(O)c4cccnn4)cc3)nc2)cc1 (some centres unmarked) [Compound 915]
2500 to 5000 | CC(C)(C)c1ccc(C(=O)N[C@@H](Cc2ccc(-c3ncc(-c4nc(-c5ccc(Cl)cc5)no4)cn3)cc2)C(=O)NCCC(=O)O)cc1 [Compound 751]
800 to 2500 | CCCCCCCOc1ccc(-c2cnc(-c3ccc(C[C@H](NC(=O)c4ccc(C(C)(C)C)cc4)C(=O)N[C@H](C(=O)O)C(C)(C)C)cc3)nc2)cc1 [Compound 546]
2500 to 5000 | CC(C)Cc1ccc(-c2cnc(-c3ccc(C[C@H](NC(=O)c4ccc(C(C)(C)C)s4)C(=O)N[C@H](C)C(=O)O)cc3)nc2)cc1 [Compound 1021]
5000 to 10000 | CC(C)COc1ccc(-c2cnc(-c3ccc(C[C@H](NC(=O)c4ccc(C(C)(C)C)s4)C(=O)NC(C(=O)O)C(O)c4ccccc4)cc3)nc2)cc1 (some centres unmarked) [Compound 934]
< 800 | Cc1cc(-c2ccc(-c3cnc(-c4ccc(C[C@H](NC(=O)c5ccc(C(C)(C)C)s5)C(=O)N5CC(C(=O)O)C5)cc4)nc3)c(F)c2)ccc1Cl [Compound 1199]
5000 to 10000 | CCCCCCCOc1ccc(-c2cnc(-c3ccc(C[C@H](NC(=O)c4ccc(C(C)(C)C)cc4)C(=O)NC(CC(=O)O)c4ccccc4)cc3)nc2)cc1 (some centres unmarked) [Compound 539]
800 to 2500 | CCCCCCCOc1ccc(-c2cnc(-c3ccc(C[C@H](NC(=O)c4ccc(C(C)C)s4)C(=O)NC(C(=O)O)C(O)c4ccccc4)cc3)nc2)cc1 (some centres unmarked) [Compound 958]
5000 to 10000 | CCCCCCCOc1ccc(-c2cnc(-c3ccc(C[C@H](NC(=O)c4ccc(C(C)(C)C)s4)C(=O)N[C@H](C(=O)O)C(C)(C)C)cc3)nc2)cc1 [Compound 620]
800 to 2500 | CCCCN(Cc1ccc(OC)cc1)S(=O)(=O)c1ccc(-c2cnc(-c3ccc(C[C@H](NC(=O)c4ccc(C(C)(C)C)s4)C(=O)N[C@H](C)C(=O)O)cc3)nc2)cc1 [Compound 1037]
< 800 | CCCCCCCOc1ccc(-c2cnc(-c3ccc(C[C@H](NC(=O)c4ccc(C(C)(C)C)cc4)C(=O)N[C@@H](CC(=O)NC4CC4)C(=O)O)cc3)nc2)cc1 [Compound 479]
< 800 | CC(C)(C)CCOc1ccc(-c2cnc(-c3ccc(C[C@H](NC(=O)c4ccc(C(C)(C)C)s4)C(=O)N4CC(C(=O)O)C4)cc3)nc2)cc1 [Compound 796]
800 to 2500 | CCCCCCCOc1ccc(-c2cnc(-c3ccc(CC(NC(=O)c4ccc(C(C)(C)C)s4)C(=O)N[C@@H](CSSC[C@H](N)C(=O)O)C(=O)O)cc3)nc2)cc1 (some centres unmarked) [Compound 426]
2500 to 5000 | CCCCCCCOc1ccc(-c2cnc(-c3ccc(C[C@H](NC(=O)c4ccc(OC(C)C)cc4)C(=O)N4CC[C@H](C(=O)O)C4)cc3)nc2)cc1 [Compound 849]
2500 to 5000 | CCCCCCCOc1ccc(-c2cnc(-c3ccc(C[C@H](NC(=O)c4ccc(C5CC5)s4)C(=O)NC(C(=O)O)C(O)c4ccccc4)cc3)nc2)cc1 (some centres unmarked) [Compound 956]
800 to 2500 | CCCCCCCOc1ccc(-c2cnc(-c3ccc(C[C@H](NC(=O)c4ccc(OCC)cc4)C(=O)N4CC(C(=O)O)C4)cc3)nc2)cc1 [Compound 1114]
800 to 2500 | CCCCCCCOc1ccc(-c2cnc(-c3ccc(C[C@H](NC(=O)c4ccc(C(C)(C)C)s4)C(=O)N[C@@H](Cc4ccccc4)C(=O)O)cc3)nc2)cc1 [Compound 648]
2500 to 5000 | CCCCCCOc1ccc(-c2ccc(-c3ccc(C[C@H](NC(=O)c4ccc(C(C)(C)C)cc4)C(=O)O)cc3)cn2)cc1 [Compound 270]
